How the values were obtained:
human leukocyte elastase = target: T1, human leukocyte elastase (Homo sapiens, UniProt P08246); test: Inhibition of hydrolysis of methoxysuccinyl-ala-ala-pro-val-nitroanilide by human leukocyte elastase; type: biochemical; conditions: for IC50: human leukocyte elastase, MSN substrate
T1 sequence (P08246 30-267): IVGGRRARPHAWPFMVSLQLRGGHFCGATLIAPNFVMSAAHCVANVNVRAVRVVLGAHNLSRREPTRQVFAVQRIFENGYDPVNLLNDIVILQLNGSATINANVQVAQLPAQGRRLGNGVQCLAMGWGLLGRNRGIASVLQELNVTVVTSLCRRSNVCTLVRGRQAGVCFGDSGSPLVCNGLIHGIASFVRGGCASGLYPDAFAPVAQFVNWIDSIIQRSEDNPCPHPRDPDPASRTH
Source text: The compounds useful in practicing the method of the invention are inhibitors of leucocyte elastase and cathepsin G. Since elastase is involved in the breakdown of elastin and subsequently involved in a number of disease states, a compound which blocks the action of elastase will be useful in the management, treatment and prevention of such diseases. […] Nakajima, K., et al., J. Biol. Chem., 254, 4027 (1979). This is useful in measuring inhibition of elastase because the hydrolysis of MSN is easily quantitated by measuring the release of p-nitroaniline spectrophotometrically. Therefore, the degree of elastase inhibition can be readily measured by noting the rate of inhibition of the hydrolysis of MSN. The compounds of the invention are therefore tested in vitro as follows. The rate of hydrolysis of methoxysuccinyl-ala-ala-pro-val-nitroanalide by human leukocyte elastase is monitored spectrophotometrically in the presence and absence of test compound. The inhibition of the enzymatic reaction by 20% or more at a given concentration of test compound is taken as positive inhibition of elastase. IC50 values are then determined.

[1] = target: mammalian prolyl-4-hydroxylase (Homo sapiens, UniProt P13674); test: In vitro prolyl-4-hydroxylase inhibition; type: biochemical; conditions: purified mammalian enzyme
Source text: Fibrosis is a connective tissue disease characterized by overaccumulation of extracellular fibrous matrix components, particularly collagen. Since prolyl hydroxylation is required for active secretion and thermal stability of collagen, fibrosis could be treated by inhibitors of prolyl-4-hydroxylase, such as the compounds of this invention. See G. C. Fuller, J. Med. Chem., 24, 651-658 (1981). The following procedure is used to test the compounds in vitro for prolyl-4-hydroxylase inhibition.
Purified mammalian prolyl-4-hydroxylase [EC 1.14.11.2:prolyl-glycyl-peptide, 2-oxyglutarate: oxidoreductase] is incubated with substrates (i.e., native unhydroxylated collagen of either 60,000 molecular weight, Km 10^-8 M; or 90,000 molecular weight, Km 10^-11 M), α-ketoglutarate, oxygen, and enzyme cofactors, with or without the test compounds. End-point is determined by measuring release of tritiated water during the hydroxylation of H^3 -peptidyl proline or release of ^14 CO2 formed from the coupled decarboxylation of ^14 C-α-ketoglutarate. Data are reported as percent inhibition with test compound at a given concentration relative to the control assays without test compound.

[2] = tested on: bleomycin-induced lung fibrosis; test: Bleomycin-induced lung fibrosis in male syrian hamsters; type: in vivo, syrian hamster; conditions: 100 mg/kg, day 21 relative to untreated animals
Source text: The procedure described by Kelley et al., J. Lab. Clin. Med., 96, 954-964 (1980), is used to test the compounds in vivo for activity against bleomycin-induced lung fibrosis in male syrian hamsters. […] Activities are reported as percent inhibitions at day 21 relative to untreated animals.

mammalian prolyl-4-hydroxylase, sequence (P13674 18-534): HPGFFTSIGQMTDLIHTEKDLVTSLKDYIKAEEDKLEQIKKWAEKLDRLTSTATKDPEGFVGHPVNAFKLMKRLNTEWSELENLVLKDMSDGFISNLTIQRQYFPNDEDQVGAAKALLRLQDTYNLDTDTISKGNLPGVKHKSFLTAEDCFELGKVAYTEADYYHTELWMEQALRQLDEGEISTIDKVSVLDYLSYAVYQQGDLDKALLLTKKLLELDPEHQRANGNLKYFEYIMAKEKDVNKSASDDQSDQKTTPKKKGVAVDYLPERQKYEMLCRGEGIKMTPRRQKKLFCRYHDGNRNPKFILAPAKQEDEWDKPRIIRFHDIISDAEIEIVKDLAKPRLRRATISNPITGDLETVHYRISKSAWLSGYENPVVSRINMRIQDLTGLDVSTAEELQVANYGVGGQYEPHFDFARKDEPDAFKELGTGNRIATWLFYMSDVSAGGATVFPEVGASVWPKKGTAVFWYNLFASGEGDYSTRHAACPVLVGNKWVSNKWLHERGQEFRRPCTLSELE
mammalian prolyl-4-hydroxylase, sequence (P07237 18-508 partner): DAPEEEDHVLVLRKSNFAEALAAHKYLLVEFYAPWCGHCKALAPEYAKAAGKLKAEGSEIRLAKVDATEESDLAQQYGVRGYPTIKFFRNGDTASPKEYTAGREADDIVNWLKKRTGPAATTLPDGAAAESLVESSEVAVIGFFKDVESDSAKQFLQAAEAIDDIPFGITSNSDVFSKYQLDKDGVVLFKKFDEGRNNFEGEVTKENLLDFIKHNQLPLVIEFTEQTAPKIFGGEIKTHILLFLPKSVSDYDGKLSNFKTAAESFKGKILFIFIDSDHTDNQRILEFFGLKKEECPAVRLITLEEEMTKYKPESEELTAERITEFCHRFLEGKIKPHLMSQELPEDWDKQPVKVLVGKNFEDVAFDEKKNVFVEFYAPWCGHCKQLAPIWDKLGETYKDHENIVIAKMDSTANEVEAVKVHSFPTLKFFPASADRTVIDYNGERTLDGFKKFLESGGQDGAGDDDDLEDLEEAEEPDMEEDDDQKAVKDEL

Row | Structure (SMILES) | IC50 (human leukocyte elastase) | IC50 [1] | also measured
1 | CCCCCCCC/C=C\CCCCCCCC(=O)N1CCC[C@H]1C(=O)O [Example 1, 1-(1-oxo-9Z-octadecenyl)proline] | 7.8 µM | 4.4 µM | 
2 | CCCCCCCC/C=C\CCCCCCCC(=O)N1CCCC(C(=O)O)C1 (stereo not shown) [Example 2, 1-(1-oxo-9Z-ocadecenyl)-3-piperidinecarboxylic acid] | 3.4 µM | 5.9 µM | 
3 | CCCCCCCC/C=C\CCCCCCCC(=O)N1CCC(C(=O)O)CC1 [Example 3, 1-(1-oxo-9Z-octadecenyl)-4-piperidinecarboxylic acid] | 4.6 µM | 9 µM | 
4 | CCCCCCCC/C=C\CCCCCCCC(=O)N1CCC(C(=O)OCC)(c2ccccc2)CC1 [Example 4, ethyl 1-(1-oxo-9Z-octadecenyl)-4-phenyl-4-piperidinecarboxylate] |  |  | inhibition against elastase (human leukocyte elastase; at 20 mcM): 22%
5 | CCCCCCCC/C=C\CCCCCCCC(=O)N1CCC(C(=O)O)(c2ccccc2)CC1 [Example 5, 1-(1-oxo-9Z-octadecenyl)-4-phenyl-4-piperidinecarboxylic acid] | 1.2 µM |  | 
6 | CCCCCCCC/C=C\CCCCCCCC(=O)N1CCC[C@H]1C(=O)OC [Example 6, 1-(1-oxo-9Z-octadecenyl)proline methyl ester] |  |  | Bleomycin-induced Fibrosis, % Inhib. of Hydroxyproline [2]: 30.1%; Bleomycin-induced Fibrosis, % Inhib. of Lung wt./body wt. [2]: 33.0%
